Laboratory results taken from patent US6737383B1, “Herbicidal oxadiazolidines” (priority 1999, dated 2004).

How the values were obtained:
[1] = test system: soybean; assay: Test B pre/postemergence soybean; assay type: in vivo, Glycine max
Procedure, shortened: (§1)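 Response is a visual 0-to-10 score relative to untreated plants, where 0 means no effect and 10 means complete control, taken twelve to sixteen days after application. Treatments went onto soil at planting and onto foliage of 1- to 4-leaf plants, using a surfactant-containing non-phytotoxic solvent.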

[2] = test system: rape; assay: Test B pre/postemergence rape; assay type: in vivo, Brassica napus
Procedure, shortened: as §1

[3] = test system: wild oat; assay: Test B pre/postemergence wild oat; assay type: in vivo, Avena fatua
Procedure, shortened: as §1

[4] = test system: corn; assay: Test B pre/postemergence corn; assay type: in vivo, Zea mays
Procedure, shortened: as §1

[5] = test system: smallflower flatsedge; assay: Test B flood test smallflower flatsedge; assay type: in vivo, Cyperus difformis
Procedure, shortened: (§2)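 Read-out is a visual response score from 0 (no effect) to 10 (complete control), assigned by comparison with untreated controls. Treatment was applied at the 2-leaf stage, and plants stayed in the greenhouse for twelve to sixteen days before scoring.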

[6] = test system: cocklebur; assay: Test B pre/postemergence cocklebur; assay type: in vivo, Xanthium strumarium
Procedure, shortened: as §1

[7] = test system: bamyardgrass; assay: Test B flood test barnyardgrass; assay type: in vivo, Echinochloa crus-galli
Procedure, shortened: as §2

[8] = test system: crabgrass; assay: Test B pre/postemergence crabgrass; assay type: in vivo, Digitaria sanguinalis
Procedure, shortened: as §1

[9] = test system: pigweed; assay: Test B pre/postemergence pigweed; assay type: in vivo, Amaranthus retroflexus
Procedure, shortened: as §1

[10] = test system: velvetleaf; assay: Test B pre/postemergence velvetleaf; assay type: in vivo, Abutilon theophrasti
Procedure, shortened: as §1

[11] = test system: giant foxtail; assay: Test B pre/postemergence giant foxtail; assay type: in vivo, Setaria faberii
Procedure, shortened: as §1

[12] = test system: sugar beet; assay: Test B pre/postemergence sugar beet; assay type: in vivo, Beta vulgaris
Procedure, shortened: as §1

[13] = test system: duck salad; assay: Test B flood test duck salad; assay type: in vivo, Heteranthera limosa
Procedure, shortened: as §2

[14] = test system: morningglory; assay: Test B pre/postemergence morningglory; assay type: in vivo, Ipomoea hederacea
Procedure, shortened: as §1

[15] = test system: wheat; assay: Test B pre/postemergence wheat; assay type: in vivo, Triticum aestivum
Procedure, shortened: as §1

[16] = test system: rice; assay: Test B flood test rice; assay type: in vivo, Oryza sativa
Procedure, shortened: as §2

[17] = test system: surinam grass; assay: Test B pre/postemergence surinam grass; assay type: in vivo, Brachiaria decumbens
Procedure, shortened: as §1

[18] = test system: purple nutsedge; assay: Test B pre/postemergence purple nutsedge; assay type: in vivo, Cyperus rotundus
Procedure, shortened: as §1

[19] = test system: blackgrass; assay: Test B pre/postemergence blackgrass; assay type: in vivo, Alopecurus myosuroides
Procedure, shortened: as §1

[20] = Postemergence, Rate 250 g/ha, scale 0 to 10
[21] = Postemergence, Rate 500 g/ha, scale of 0 to 10 where 0 is no effect and 10 is complete control
[22] = Preemergence, Rate 62 g/ha, scale 0 to 10 (0 no effect, 10 complete control)
[23] = Preemergence, Rate 125 g/ha, scale of 0 to 10 where 0 is no effect and 10 is complete control
[24] = Preemergence, Rate 250 g/ha, scale 0 to 10, 0 is no effect, 10 is complete control
[25] = Preemergence, Rate 500 g/ha, scale 0 to 10, 0 is no effect, 10 is complete control
[26] = Rate 125 g/ha, Postemergence, scale 0 to 10, 0 is no effect, 10 is complete control
[27] = Rate 62 g/ha, Postemergence, scale of 0 to 10 where 0 is no effect and 10 is complete control
[28] = Postemergence block (flood test species), Rate 250 g/ha, scale 0 to 10
[29] = Postemergence section (flood test species), Rate 500 g/ha, scale of 0 to 10 where 0 is no effect and 10 is complete control
[30] = Rate 125 g/ha, Postemergence section (flood test species), scale 0 to 10, 0 is no effect, 10 is complete control
[31] = Rate 62 g/ha, Postemergence (flood test species), scale of 0 to 10 where 0 is no effect and 10 is complete control

Q: What does the source list for `CC(C)N(C(=O)n1oc(=O)n(C2CCCCCC2)c1=O)C1=CCCCC1` [Compound 428]?
A: Soybean plant response rating [1, 20]: 2; Soybean plant response rating [1, 21]: 3; Plant response rating, Soybean [1, 22]: 0; Plant response rating, Soybean [1, 23]: 0; Soybean plant response rating [1, 24]: 0; Soybean plant response rating [1, 25]: 0; Soybean plant response rating [1, 26]: 1; Rape plant response rating [2, 20]: 0; Rape plant response rating [2, 21]: 0; Plant response rating, Rape [2, 22]: 0; Plant response rating, Rape [2, 23]: 0; Rape plant response rating [2, 24]: 0; Rape plant response rating [2, 25]: 0; Rape plant response rating [2, 26]: 0; Wild oats plant response rating [3, 20]: 0; Wild oats plant response rating [3, 21]: 0; Plant response rating, Wild oats [3, 22]: 0; Plant response rating, Wild oats [3, 23]: 0; Wild oats plant response rating [3, 24]: 0; Wild oats plant response rating [3, 25]: 2; Wild oats plant response rating [3, 26]: 0; Corn plant response rating [4, 20]: 0; Corn plant response rating [4, 21]: 0; Plant response rating, Corn [4, 22]: 0; Plant response rating, Corn [4, 23]: 0; Corn plant response rating [4, 24]: 0; Corn plant response rating [4, 25]: 0; Corn plant response rating [4, 27]: 0; Corn plant response rating [4, 26]: 0; S. Flatsedge plant response rating [5, 28]: 0; S. Flatsedge plant response rating [5, 29]: 9; S. Flatsedge plant response rating [5, 30]: 0; Cocklebur plant response rating [6, 20]: 0; Cocklebur plant response rating [6, 21]: 1; Plant response rating, Cocklebur [6, 22]: 0; Plant response rating, Cocklebur [6, 23]: 0; Cocklebur plant response rating [6, 24]: 0; Cocklebur plant response rating [6, 25]: 0; Cocklebur plant response rating [6, 27]: 0; Cocklebur plant response rating [6, 26]: 0; Barnyardgrass plant response rating [7, 28]: 2; Barnyardgrass plant response rating [7, 29]: 5; Barnyardgrass plant response rating [7, 31]: 0; Barnyardgrass plant response rating [7, 30]: 0; Crabgrass plant response rating [8, 20]: 0; Crabgrass plant response rating [8, 21]: 3; Plant response rating, Crabgrass [8, 22]: 2; Plant response rating, Crabgrass [8, 23]: 7; Crabgrass plant response rating [8, 24]: 9; Crabgrass plant response rating [8, 25]: 10; Crabgrass plant response rating [8, 27]: 0; Crabgrass plant response rating [8, 26]: 0; Redroot pigweed plant response rating [9, 20]: 0; Redroot pigweed plant response rating [9, 21]: 3; Plant response rating, Redroot pigweed [9, 22]: 0; Plant response rating, Redroot pigweed [9, 23]: 0; Redroot pigweed plant response rating [9, 24]: 0; Redroot pigweed plant response rating [9, 25]: 0; Redroot pigweed plant response rating [9, 26]: 0; Velvetleaf plant response rating [10, 20]: 2; Velvetleaf plant response rating [10, 21]: 7; Plant response rating, Velvetleaf [10, 22]: 0; Plant response rating, Velvetleaf [10, 23]: 0; Velvetleaf plant response rating [10, 24]: 0; Velvetleaf plant response rating [10, 25]: 0; Velvetleaf plant response rating [10, 26]: 0; Giant foxtail plant response rating [11, 20]: 0; Giant foxtail plant response rating [11, 21]: 0; Plant response rating, Giant foxtail [11, 22]: 0; Plant response rating, Giant foxtail [11, 23]: 7; Giant foxtail plant response rating [11, 24]: 8; Giant foxtail plant response rating [11, 25]: 10; Giant foxtail plant response rating [11, 27]: 0; Giant foxtail plant response rating [11, 26]: 0; Sugarbeets plant response rating [12, 20]: 0; Sugarbeets plant response rating [12, 21]: 0; Plant response rating, Sugarbeets [12, 22]: 0; Plant response rating, Sugarbeets [12, 23]: 0; Sugarbeets plant response rating [12, 24]: 0; Sugarbeets plant response rating [12, 25]: 0; Sugarbeets plant response rating [12, 26]: 0; Ducksalad plant response rating [13, 28]: 3; Ducksalad plant response rating [13, 29]: 5; Ducksalad plant response rating [13, 31]: 0; Ducksalad plant response rating [13, 30]: 0; Morningglory plant response rating [14, 20]: 2; Morningglory plant response rating [14, 21]: 3; Plant response rating, Morningglory [14, 22]: 0; Plant response rating, Morningglory [14, 23]: 0; Morningglory plant response rating [14, 24]: 0; Morningglory plant response rating [14, 25]: 0; Morningglory plant response rating [14, 26]: 1; Wheat plant response rating [15, 20]: 0; Wheat plant response rating [15, 21]: 0; Plant response rating, Wheat [15, 22]: 0; Plant response rating, Wheat [15, 23]: 0; Wheat plant response rating [15, 24]: 0; Wheat plant response rating [15, 25]: 0; Wheat plant response rating [15, 26]: 0; Rice plant response rating [16, 28]: 2; Rice plant response rating [16, 29]: 2; Rice plant response rating [16, 30]: 0; B. signalgrass plant response rating ([17]; Postemergence, Rate 250 g/ha, scale 0 to 10, 0 no effect, 10 complete control): 0; B. signalgrass plant response rating [17, 21]: 0; Plant response rating, B. signalgrass [17, 22]: 0; Plant response rating, B. signalgrass [17, 23]: 0; B. signalgrass plant response rating [17, 24]: 0; B. signalgrass plant response rating [17, 25]: 3; B. signalgrass plant response rating [17, 27]: 0; B. signalgrass plant response rating [17, 26]: 0; Nutsedge plant response rating [18, 20]: 0; Nutsedge plant response rating [18, 21]: 0; Plant response rating, Nutsedge [18, 22]: 0; Plant response rating, Nutsedge [18, 23]: 0; Nutsedge plant response rating [18, 24]: 0; Nutsedge plant response rating [18, 25]: 0; Nutsedge plant response rating [18, 26]: 0; Blackgrass plant response rating [19, 20]: 3; Blackgrass plant response rating [19, 21]: 4; Plant response rating, Blackgrass [19, 22]: 0; Plant response rating, Blackgrass [19, 23]: 0; Blackgrass plant response rating [19, 24]: 0; Blackgrass plant response rating [19, 25]: 2; Blackgrass plant response rating [19, 27]: 0; Blackgrass plant response rating [19, 26]: 0
